The source of these data is patent US12403128B2, “Compositions and methods for blocking sodium channels” (University of Virginia Patent Foundation, priority 2017, dated 2025).

Counter-ions that a name gives are not always drawn.

Holding throughout (format): cell-based
The target in assay [1] is T1, Nav1.6 (Homo sapiens, UniProt Q9UQD0). Kind of assay: High-throughput flux assay, Nav1.6.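 Note: IC50 from the flux assay.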 Conditions: human isoform. As to the method:
(§1) Evaluation of Compounds on Human Isoforms Using a High-Throughput Flux Assay
(§2) Compounds were tested using a high-throughput flux assay across Nav1.5, Nav1.6 and Nav1.7.

For assay [2], the target named is T2, NaV1.5 (Homo sapiens, UniProt Q14524). The assay is described as follows: High-throughput flux assay, NaV1.5.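 Note: IC50 from the flux assay.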 The settings on record: human isoform. The procedure: as §1, §2
Assay [3] has as its target T3, NaV1.7 (Homo sapiens, UniProt Q15858). The assay is described as follows: Qube assay, NaV1.7. Conditions: human isoform; read-out: Qube EP IC50 NaV1.7. As to the method: (§3) Evaluation of Compounds on Human Isoforms Using Qube Assay.
(§4) Compounds were tested using a Qube assay across NaV1.5, NaV1.6 and NaV1.7.

The target in assay [4] is T1, Nav1.6. Kind of assay: % block of Nav1.6 at 100 μM and IC50 (NaV1.6). The settings on record: for inhibition at 100 µM: 100 μM compound; for IC50: NaV1.6, Table 2, MV1060-MV1091, unit inferred, read-out: IC50. As to the method:
Evaluation of Compounds for % Block of Nav1.6 at 100 μM
Compounds of the present invention were tested in an assay for % block of Nav1.6 at a concentration of 100 μM compound. Table 1 also indicates the melting point ranges for some compounds.
Some such compounds correspond to a compound of Formula III, wherein R9 is substituted with a halogen, a nitro or a CF3 group. In comparing MV1089, MV1090 and MV1091, it is shown that compounds of Formula III where R3 is H result in higher % block than when R3 is substituted. e.g., by OCH3. In comparing MV1066, MV1084, MV1085, MV1086, MV1087 and MV1088, it is shown that compounds of Formula III where R9 is halogen, a nitro or a CF3 group result in higher % block than when R9 is OCH3, COOH or CH3.

For assay [5], the target named is T1, Nav1.6. Kind of assay: Qube assay, NaV1.6. The settings on record: human isoform; read-out: Qube EP IC50 NaV1.6. As to the method:
as §3, §4

Assay [6] concerns the target T2, NaV1.5. The assay is described as follows: Qube assay, NaV1.5. Conditions: human isoform; read-out: Qube EP IC50 NaV1.5. The procedure:
as §3, §4

For assay [7], the target named is T3, NaV1.7. The assay is described as follows: High-throughput flux assay, NaV1.7.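 Note: IC50 from the flux assay.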 The settings on record: human isoform. The procedure: as §1, §2

T2 sequence (Q14524 whole entry, canonical isoform): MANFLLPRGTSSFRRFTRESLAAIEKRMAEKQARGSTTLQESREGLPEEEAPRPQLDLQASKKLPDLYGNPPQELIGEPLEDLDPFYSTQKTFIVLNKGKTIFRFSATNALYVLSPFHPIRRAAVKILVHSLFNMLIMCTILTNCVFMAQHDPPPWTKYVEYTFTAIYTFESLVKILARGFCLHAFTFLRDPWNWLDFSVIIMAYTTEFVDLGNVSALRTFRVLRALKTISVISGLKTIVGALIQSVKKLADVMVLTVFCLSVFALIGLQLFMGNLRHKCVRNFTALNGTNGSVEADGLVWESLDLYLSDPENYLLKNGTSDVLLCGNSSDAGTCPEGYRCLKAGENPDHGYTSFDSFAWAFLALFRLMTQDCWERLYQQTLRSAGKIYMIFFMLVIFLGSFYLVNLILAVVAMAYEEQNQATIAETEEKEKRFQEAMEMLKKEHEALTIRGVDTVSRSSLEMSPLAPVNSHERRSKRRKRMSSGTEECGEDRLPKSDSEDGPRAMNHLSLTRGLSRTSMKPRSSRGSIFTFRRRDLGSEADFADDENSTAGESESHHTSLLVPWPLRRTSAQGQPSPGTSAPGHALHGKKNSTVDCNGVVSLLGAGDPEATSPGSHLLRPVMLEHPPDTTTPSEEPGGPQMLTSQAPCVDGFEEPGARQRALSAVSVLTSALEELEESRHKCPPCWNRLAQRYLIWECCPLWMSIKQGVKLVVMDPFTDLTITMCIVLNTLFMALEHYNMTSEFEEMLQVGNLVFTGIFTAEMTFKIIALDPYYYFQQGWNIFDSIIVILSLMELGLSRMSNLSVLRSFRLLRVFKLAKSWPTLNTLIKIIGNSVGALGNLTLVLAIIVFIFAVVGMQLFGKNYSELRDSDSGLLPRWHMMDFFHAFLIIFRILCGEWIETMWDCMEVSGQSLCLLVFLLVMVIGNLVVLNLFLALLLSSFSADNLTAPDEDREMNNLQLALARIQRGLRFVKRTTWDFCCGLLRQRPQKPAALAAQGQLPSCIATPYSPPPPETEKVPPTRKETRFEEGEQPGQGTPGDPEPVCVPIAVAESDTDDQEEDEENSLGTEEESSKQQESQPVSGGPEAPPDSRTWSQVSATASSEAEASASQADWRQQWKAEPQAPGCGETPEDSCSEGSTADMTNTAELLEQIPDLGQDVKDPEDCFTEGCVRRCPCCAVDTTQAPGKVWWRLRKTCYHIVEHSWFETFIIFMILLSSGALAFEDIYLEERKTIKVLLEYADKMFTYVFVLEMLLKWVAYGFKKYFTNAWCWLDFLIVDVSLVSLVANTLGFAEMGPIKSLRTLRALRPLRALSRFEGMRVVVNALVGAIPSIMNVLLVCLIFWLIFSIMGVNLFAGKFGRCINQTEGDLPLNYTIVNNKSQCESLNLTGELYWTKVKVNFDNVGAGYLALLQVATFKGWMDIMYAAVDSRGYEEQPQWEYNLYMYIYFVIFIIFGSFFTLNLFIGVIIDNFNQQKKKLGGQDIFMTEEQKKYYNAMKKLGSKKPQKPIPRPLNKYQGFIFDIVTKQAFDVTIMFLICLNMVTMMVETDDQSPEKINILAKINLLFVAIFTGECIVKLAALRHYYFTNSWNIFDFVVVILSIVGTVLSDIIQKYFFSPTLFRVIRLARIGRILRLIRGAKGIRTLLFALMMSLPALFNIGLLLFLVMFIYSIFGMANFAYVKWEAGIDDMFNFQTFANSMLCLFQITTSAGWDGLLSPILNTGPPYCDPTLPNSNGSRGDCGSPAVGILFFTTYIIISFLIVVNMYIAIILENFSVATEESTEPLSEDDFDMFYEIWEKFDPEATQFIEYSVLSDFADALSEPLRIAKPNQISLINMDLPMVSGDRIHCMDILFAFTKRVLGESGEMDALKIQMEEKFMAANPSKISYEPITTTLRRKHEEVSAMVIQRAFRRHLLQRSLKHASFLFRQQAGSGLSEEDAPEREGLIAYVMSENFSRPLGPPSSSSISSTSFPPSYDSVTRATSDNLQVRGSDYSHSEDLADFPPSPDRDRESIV
T1 sequence (Q9UQD0 whole entry, canonical isoform): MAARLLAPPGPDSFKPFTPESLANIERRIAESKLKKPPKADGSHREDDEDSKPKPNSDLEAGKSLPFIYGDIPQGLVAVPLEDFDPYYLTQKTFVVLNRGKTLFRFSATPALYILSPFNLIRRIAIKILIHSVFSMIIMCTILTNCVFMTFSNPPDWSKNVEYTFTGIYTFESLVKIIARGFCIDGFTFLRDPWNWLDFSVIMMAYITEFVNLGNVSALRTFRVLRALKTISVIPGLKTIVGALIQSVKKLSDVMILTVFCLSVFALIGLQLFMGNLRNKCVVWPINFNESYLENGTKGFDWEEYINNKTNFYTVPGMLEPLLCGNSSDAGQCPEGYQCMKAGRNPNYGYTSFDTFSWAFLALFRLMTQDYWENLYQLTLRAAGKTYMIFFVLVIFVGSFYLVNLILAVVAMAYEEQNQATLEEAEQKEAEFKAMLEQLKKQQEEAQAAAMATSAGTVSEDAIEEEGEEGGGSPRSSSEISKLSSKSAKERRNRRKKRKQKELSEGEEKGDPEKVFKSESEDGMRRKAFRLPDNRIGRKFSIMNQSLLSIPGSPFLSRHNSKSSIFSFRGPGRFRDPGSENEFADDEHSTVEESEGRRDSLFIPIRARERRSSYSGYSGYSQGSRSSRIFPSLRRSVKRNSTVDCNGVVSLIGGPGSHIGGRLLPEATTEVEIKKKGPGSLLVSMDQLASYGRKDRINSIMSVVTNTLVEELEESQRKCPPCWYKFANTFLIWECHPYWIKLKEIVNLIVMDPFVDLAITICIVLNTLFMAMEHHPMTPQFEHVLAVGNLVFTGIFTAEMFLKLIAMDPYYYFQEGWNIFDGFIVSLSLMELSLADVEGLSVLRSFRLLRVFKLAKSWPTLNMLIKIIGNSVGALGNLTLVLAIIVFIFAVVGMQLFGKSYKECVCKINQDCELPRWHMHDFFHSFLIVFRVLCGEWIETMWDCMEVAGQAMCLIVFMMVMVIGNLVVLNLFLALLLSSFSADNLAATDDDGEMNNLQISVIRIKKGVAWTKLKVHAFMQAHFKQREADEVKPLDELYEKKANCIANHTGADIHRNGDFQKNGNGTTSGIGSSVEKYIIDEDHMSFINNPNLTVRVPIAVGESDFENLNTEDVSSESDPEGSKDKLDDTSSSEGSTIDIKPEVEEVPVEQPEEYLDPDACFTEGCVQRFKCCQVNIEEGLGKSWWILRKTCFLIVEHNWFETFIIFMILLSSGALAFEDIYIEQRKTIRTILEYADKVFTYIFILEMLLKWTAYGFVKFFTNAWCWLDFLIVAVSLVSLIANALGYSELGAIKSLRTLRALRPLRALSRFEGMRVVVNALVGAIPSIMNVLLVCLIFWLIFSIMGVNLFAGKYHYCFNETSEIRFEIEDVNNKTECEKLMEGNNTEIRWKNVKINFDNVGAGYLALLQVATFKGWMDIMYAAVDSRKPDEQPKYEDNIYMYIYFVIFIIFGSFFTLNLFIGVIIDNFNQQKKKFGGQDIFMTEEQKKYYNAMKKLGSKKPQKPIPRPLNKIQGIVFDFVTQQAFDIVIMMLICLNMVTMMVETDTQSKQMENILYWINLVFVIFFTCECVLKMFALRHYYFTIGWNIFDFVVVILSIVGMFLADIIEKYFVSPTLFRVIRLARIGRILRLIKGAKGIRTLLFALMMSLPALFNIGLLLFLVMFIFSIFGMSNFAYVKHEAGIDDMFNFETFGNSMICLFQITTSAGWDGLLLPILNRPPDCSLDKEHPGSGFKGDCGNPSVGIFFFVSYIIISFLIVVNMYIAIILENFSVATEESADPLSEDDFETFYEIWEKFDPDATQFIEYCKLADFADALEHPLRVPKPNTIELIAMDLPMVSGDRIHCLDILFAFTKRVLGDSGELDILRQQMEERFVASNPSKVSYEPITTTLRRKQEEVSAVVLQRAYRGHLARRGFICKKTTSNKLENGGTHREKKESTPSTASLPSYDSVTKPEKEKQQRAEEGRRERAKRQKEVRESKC

For `COc1ccc(-c2nc(C)c(-c3ccccc3)[nH]2)cc1O` [MV1508, 2-methoxy-5-(5-methyl-4-phenyl-1H-imidazol-2-yl)phenol hydrochloride], the IC50 stood at 1.88 µM in assay [1]; 2.61 µM in assay [2]; 11.5 µM in assay [3]; 3.99 µM in assay [5]; 11.9 µM in assay [6]; 4.58 µM in assay [7]. In assay [4], this molecule gave an inhibition at 100 µM of 90%.
For the molecule `COc1ccc(-c2nc(C)c(-c3ccccc3)[nH]2)cc1` [MV1501, 2-(4-methoxyphenyl)-4-methyl-5-phenyl-1H-imidazole hydrochloride], the IC50 in assay [1] was 2.74 µM; in assay [2], 6.24 µM; in assay [3] it was 14.8 µM; in assay [5], 7.43 µM; in assay [6] it was 27 µM; in assay [7], 7.98 µM. Besides, in assay [4], the inhibition at 100 µM turned out to be 90%.
Consider `COc1ccccc1-c1ncc(C)[nH]1` [MV1358, 2-(2-METHOXY-PHENYL)-5-METHYL-1H-IMIDAZOLE OXALATE], for which, in assay [4], the inhibition at 100 µM was found to be 50%.
`O=C(O)c1ccc(-c2nc3ccccc3[nH]2)cc1` [MV1080, 4-(1H-1,3-benzodiazol-2-yl)benzoic acid]: in assay [4], at 100 µM the inhibition was 10% and the IC50 was over 100 µM.
On to `Cc1nc(-c2cccc(Cl)c2)[nH]c1C` [MV1366, 2-(3-CHLORO-PHENYL)-4,5-DIMETHYL-1H-IMIDAZOLE OXALATE], for which the inhibition at 100 µM in assay [4] worked out at 95%.
Take `FC(F)(F)c1ccc2nc(-c3ccccc3)[nH]c2c1` [MV1086, 6-trifluoromethyl-2-phenyl-1H-1,3-benzodiazole]: in assay [4], the inhibition at 100 µM amounted to 90% and the IC50 is 24.7 µM.
Taken in the same sequence, the figures for `COc1ccccc1-c1nc2cc(Cl)ccc2[nH]1` [MV1089, 6-chloro-2-(2-methoxyphenyl]-1H-1,3-benzodiazole] were 90% and 40.1 µM.
Taken in the same sequence, the figures for `O=C(O)c1cccc(-c2nc3ccccc3[nH]2)c1` [MV1079, 3-(1H-1,3-benzodiazol-2-yl)benzoic acid] were 15% and over 100 µM.
In the case of `COc1cccc(-c2ncc(C)[nH]2)c1` [MV1357, 2-(3-METHOXY PHENYL)-5-METHYL-1H-IMIDAZOLE OXALATE], testing at 100 µM in assay [4] gave an inhibition of 90%.
On to `O=C(O)c1ccccc1-c1nc2ccccc2[nH]1` [MV1078, 2-(1H-1,3-benzodiazol-2-yl)benzoic acid], for which, in assay [4], the inhibition at 100 µM was determined as 5% and the IC50 is over 100 µM.
Turning to `COc1ccc(-c2ncc[nH]2)cc1` [MV1350, 2-(4-METHOXY-PHENYL)-1H-IMIDAZOLE OXALATE], in assay [4], at 100 µM the inhibition was 25%.
Same read-out and setting: the same measure for `CCCc1nc(-c2ccc(Cl)cc2)[nH]c1C` [MV1371, 2-(4-CHLORO-PHENYL)-5-METHYL-4-PROPYL-1H-IMIDAZOLE OXALATE]: 100%.
For `CC(=O)Nc1ccc(-c2nc(C)c(-c3ccccc3)[nH]2)cc1` [MV1509, N-2,4-[3-methyl-4-phenyl-1H-imidazol-2-yl)phenyl]acetamide hydrochloride], the IC50 amounted to 5.67 µM in assay [1]; 7.94 µM in assay [2]; 30 µM in assay [3]; 8.24 µM in assay [5]; 15.9 µM in assay [6]; 23.8 µM in assay [7]. The inhibition at 100 µM in assay [4] came to 90%.
On to `FC(F)(F)c1ccc(-c2nc3ccccc3[nH]2)cc1` [MV1077, 2-(4-trifluoromethyl-phenyl)-1H-1,3-benzodiazole], for which, in assay [4], the inhibition at 100 µM turned out to be 15% and the IC50 was over 100 µM.
For `CCCc1nc(-c2ccc(OC)cc2)[nH]c1C` [MV1368, 2-(4-METHOXY-PHENYL)-5-METHYL-4-PROPYL-1H-IMIDAZOLE OXALATE], the inhibition at 100 µM in assay [4] was found to be 85%.
Turning to `COc1ccc(C(=O)Nc2ccc(-c3c[nH]c(-c4ccc(OC)cc4)n3)cc2)cc1` [MV1304, 4-METHOXY-N-(4-[2-(4-METHOXY-PHENYL)-1H-IMIDAZOL-4-YL]-PHENYL)-BENZAMIDE HYDROCHLORIDE], at 100 µM the inhibition in assay [4] was 40%.
Same read-out and setting: the same measure for `COc1ccc(C(=O)Nc2ccc(-c3c[nH]c(-c4ccccc4)n3)cc2)cc1` [MV1303, 4-METHOXY-N-[4-[2-PHENYL-1H-IMIDAZOL-4-YL]-PHENYL]-BENZAMIDE HYDROCHLORIDE]: 0%; for `Clc1ccc(-c2nc3ccccc3[nH]2)cc1` [MV1061, 2-(4-chlorophenyl)-1H-1,3-benzodiazole]: 45%.
`COc1cccc(-c2nc3cc(Cl)ccc3[nH]2)c1` [MV1090, 6-chloro-2-(3-methoxyphenyl)-1H-1,3-benzodiazole]: in assay [4], the inhibition at 100 µM was determined as 85% and the IC50 amounted to 29.6 µM.
For `Cc1cccc(-c2nc3ccccc3[nH]2)c1` [MV1082, 2-(3-methylphenyl)-1H-1,3-benzodiazole], the inhibition at 100 µM in assay [4] was found to be 65%.
As to `c1ccc(-c2nc3ccccc3[nH]2)cc1` [MV1060, 2-Phenyl-benzimidazole], in assay [4], the inhibition at 100 µM is 30% and the IC50 was over 100 µM.
In assay [4], `COc1ccc(-c2nc(-c3ccc(NC(=O)c4ccccc4)cc3)c[nH]2)cc1` [MV1302, N-(4-[2-(4-METHOXY-PHENYL-1H-IMIDAZOL-4-YL]-PHENYL)-BENZAMIDE HYDROCHLORIDE] gave an inhibition at 100 µM of 20%.
In turn, `COc1ccccc1-c1nc(C)c(C)[nH]1` [MV1364, 2-(2-METHOXY-PHENYL)-4,5-DIMETHYL-1H-IMIDAZOLE OXALATE] had an inhibition at 100 µM in assay [4] of 70%.
For `Clc1ccccc1-c1nc2ccccc2[nH]1` [MV1068, 2-(2-chlorophenyl)-1H-1,3-benzodiazole], in assay [4], 100 µM produced 75% inhibition and the IC50 was 41.6 µM.
Take `O=[N+]([O-])c1ccccc1-c1nc2ccccc2[nH]1` [MV1070, 2-(2-nitrophenyl)-1H-1,3-benzodiazole]: in assay [4], the inhibition at 100 µM amounted to 20% and the IC50 is over 100 µM.
As to `COc1ccc(-c2nc(-c3ccc(NC(=O)c4ccc(Cl)cc4)cc3)c[nH]2)cc1` [MV1306, 4-CHLORO-N-(4-[2-(4-METHOXY-PHENYL)-1H-IMIDAZOL-4-YL]-PHENYL)-BENZAMIDE HYDROCHLORIDE], the inhibition at 100 µM in assay [4] was 10%.
For `COc1ccccc1-c1nc2ccccc2[nH]1` [MV1073, 2-(2-methoxyphenyl)-1H-1,3-benzodiazole], in assay [4], the inhibition at 100 µM turned out to be 40% and the IC50 is over 100 µM.
